These results are taken from patent US11739098B2 (BRISTOL-MYERS SQUIBB COMPANY, priority 2017, dated 2023).

A word on the IC50: it is the point on the concentration scale where inhibition reaches its midpoint.

What all share (format): cell-based
One assay has as its target T1, human TLR7 (Homo sapiens, UniProt Q9NYK1).
T1 construct: host or cells: HEK-Blue cells (HEK293-derived reporter line)
T1 sequence (Q9NYK1 27-1049): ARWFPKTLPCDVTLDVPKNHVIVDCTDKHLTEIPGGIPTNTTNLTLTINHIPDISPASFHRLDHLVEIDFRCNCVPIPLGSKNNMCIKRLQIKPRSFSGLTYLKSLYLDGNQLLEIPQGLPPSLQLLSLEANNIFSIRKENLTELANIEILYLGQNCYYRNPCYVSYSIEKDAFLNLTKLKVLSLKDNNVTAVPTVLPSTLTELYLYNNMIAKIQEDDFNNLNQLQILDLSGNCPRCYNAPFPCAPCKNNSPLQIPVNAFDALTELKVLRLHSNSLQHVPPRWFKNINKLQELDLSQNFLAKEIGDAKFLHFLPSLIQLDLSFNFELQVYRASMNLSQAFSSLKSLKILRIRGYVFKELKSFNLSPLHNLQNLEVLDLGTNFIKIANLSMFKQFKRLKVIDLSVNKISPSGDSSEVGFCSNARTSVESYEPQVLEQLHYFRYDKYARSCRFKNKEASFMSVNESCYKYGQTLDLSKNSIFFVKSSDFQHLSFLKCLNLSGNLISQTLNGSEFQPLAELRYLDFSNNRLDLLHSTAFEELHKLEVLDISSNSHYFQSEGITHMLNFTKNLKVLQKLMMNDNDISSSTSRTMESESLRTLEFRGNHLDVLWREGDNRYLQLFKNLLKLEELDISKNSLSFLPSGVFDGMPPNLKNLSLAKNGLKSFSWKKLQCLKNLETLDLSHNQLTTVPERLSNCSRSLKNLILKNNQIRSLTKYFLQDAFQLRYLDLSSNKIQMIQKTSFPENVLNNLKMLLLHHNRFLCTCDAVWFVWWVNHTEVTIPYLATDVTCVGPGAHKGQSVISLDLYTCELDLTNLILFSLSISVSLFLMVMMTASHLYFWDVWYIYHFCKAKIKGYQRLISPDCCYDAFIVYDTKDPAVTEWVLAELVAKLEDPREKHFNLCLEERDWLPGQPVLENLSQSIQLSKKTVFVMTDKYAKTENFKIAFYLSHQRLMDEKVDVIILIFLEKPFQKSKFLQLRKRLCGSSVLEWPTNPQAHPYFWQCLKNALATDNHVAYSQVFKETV
Briefly: TLR7 inhibition reporter assay (HEK-Blue cells, SEAP reporter, gardiquimod stimulation). Conditions: HEK-Blue cells overexpressing human TLR7, SEAP reporter, gardiquimod 7.5 μM. In outline:
(§1)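 Read-out is SEAP activity in HEK-Blue detection medium after 22 h at 37 °C, converted to percent inhibition against agonist-plus-DMSO and reference-inhibitor controls. Cells saw compound (0.05 nM–50 μM, 30 min, room temperature) before gardiquimod 7.5 μM, R848 15.9 μM or ODN2006 5 nM for TLR7, TLR8 and TLR9, respectively.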
On the technique in general: Reporter assays use an easily measured gene product as a stand-in for the process of interest.

The next assay concerns the target T2, human TLR8 (Homo sapiens, UniProt Q9NR97).
T2 construct: host or cells: HEK-Blue cells (HEK293-derived reporter line)
T2 sequence (Q9NR97 27-1041): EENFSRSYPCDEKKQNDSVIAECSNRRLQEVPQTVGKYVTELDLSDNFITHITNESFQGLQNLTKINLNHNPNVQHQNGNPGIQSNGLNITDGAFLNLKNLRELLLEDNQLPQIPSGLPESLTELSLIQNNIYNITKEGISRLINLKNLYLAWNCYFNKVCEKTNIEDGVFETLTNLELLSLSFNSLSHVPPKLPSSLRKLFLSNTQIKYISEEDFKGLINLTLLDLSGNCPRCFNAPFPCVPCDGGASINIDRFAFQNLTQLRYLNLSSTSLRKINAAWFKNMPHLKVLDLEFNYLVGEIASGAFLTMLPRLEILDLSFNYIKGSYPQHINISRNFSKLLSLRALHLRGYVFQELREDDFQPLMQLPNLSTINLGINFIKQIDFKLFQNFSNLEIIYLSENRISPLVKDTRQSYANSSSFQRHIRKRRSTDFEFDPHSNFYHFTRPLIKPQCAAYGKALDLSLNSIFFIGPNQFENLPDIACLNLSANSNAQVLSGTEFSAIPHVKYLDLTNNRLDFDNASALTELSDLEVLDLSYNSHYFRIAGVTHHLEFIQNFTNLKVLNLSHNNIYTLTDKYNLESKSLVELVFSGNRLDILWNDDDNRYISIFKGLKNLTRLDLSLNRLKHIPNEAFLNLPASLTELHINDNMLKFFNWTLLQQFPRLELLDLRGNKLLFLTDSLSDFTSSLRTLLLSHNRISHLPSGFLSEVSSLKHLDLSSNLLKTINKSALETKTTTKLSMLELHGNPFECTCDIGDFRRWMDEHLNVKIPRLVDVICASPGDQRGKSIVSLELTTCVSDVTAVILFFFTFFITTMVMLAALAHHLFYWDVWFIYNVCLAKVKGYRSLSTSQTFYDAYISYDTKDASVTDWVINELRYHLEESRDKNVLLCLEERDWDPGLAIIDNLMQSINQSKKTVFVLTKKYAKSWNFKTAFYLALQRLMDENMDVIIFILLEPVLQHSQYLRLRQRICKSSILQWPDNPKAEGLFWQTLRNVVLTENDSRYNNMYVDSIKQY
Briefly: TLR8 inhibition reporter assay (HEK-Blue cells, SEAP reporter, R848 stimulation). To be noted: HEK-Blue cells overexpressing human TLR8, SEAP reporter, R848 15.9 μM. A digest of the protocol:
as §1

The target of another assay is T3, human TLR9 (Homo sapiens, UniProt Q9NR96).
T3 construct: host or cells: HEK-Blue cells (HEK293-derived reporter line)
T3 sequence (Q9NR96 26-1032): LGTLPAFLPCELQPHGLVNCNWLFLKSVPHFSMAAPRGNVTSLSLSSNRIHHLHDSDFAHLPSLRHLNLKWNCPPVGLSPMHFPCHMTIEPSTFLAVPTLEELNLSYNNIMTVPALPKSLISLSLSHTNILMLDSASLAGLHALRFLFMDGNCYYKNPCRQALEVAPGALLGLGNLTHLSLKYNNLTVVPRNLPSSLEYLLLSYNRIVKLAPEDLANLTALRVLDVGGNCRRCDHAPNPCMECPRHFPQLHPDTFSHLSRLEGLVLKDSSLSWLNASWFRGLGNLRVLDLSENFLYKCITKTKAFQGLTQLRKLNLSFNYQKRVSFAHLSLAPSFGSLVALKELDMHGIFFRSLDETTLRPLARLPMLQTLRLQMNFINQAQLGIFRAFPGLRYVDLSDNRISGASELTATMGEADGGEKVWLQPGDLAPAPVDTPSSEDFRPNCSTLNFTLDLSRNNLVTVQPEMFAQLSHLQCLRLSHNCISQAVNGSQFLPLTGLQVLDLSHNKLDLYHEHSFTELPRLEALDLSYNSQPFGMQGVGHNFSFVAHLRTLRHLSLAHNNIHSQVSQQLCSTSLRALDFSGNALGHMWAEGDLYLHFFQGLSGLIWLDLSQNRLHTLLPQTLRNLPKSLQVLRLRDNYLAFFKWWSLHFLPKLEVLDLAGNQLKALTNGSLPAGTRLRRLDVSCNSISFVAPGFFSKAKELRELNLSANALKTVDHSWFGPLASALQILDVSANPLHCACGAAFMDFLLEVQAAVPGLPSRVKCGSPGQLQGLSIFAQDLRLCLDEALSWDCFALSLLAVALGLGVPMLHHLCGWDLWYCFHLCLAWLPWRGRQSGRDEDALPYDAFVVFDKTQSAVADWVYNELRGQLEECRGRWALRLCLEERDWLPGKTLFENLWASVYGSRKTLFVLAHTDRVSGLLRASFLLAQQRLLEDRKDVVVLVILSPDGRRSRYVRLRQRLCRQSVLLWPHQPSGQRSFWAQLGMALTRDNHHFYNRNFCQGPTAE
Put plainly: TLR9 inhibition reporter assay (HEK-Blue cells, SEAP reporter, ODN2006 stimulation). To be noted: HEK-Blue cells overexpressing human TLR9, SEAP reporter, ODN2006 5 nM. In outline: as §1

Molecules are shown by their SMILES.

Consider `CCc1c(-c2cnc3cncc(OC)n23)[nH]c2ccc(C3CCNCC3)cc12` [Example 25, 3-(3-ethyl-5-(piperidin-4-yl)-1H-indol-2-yl)-5-methoxyimidazo[1,2-a]pyrazine], for which the results for the concentration for half-maximal inhibition (IC50) against human TLR7, against human TLR8 and at human TLR9 were 1 to 50 µM, 1 to 50 µM and 0.1 to 1 µM, respectively.
On to `Cc1cc(-c2[nH]c3ccc(C4CCNCC4)cc3c2C(C)C)cc2ccnn12` [Example 143, 5-(3-isopropyl-5-(piperidin-4-yl)-1H-indol-2-yl)-7-methylpyrazolo[1,5-a]pyridine], for which the results for the IC50 on human TLR7, at human TLR8 and against human TLR9 were less than 0.1 µM, less than 0.1 µM and 1 to 50 µM, respectively.
For `CNC(=O)CN1CCC(c2ccc3[nH]c(-c4cc(C)n5ncnc5c4)c(C(C)C)c3c2)CC1` [Example 325, 2-(4-(3-isopropyl-2-(5-methyl-[1,2,4]triazolo [1,5-a]pyridin-7-yl)-1H-indol-5-yl)piperidin-1-yl)-N-methylacetamide], the results for the IC50 at human TLR7, at human TLR8 and at human TLR9 were less than 0.1 µM, less than 0.1 µM and 1 to 50 µM, respectively.
As to `Cc1cc(-c2[nH]c3ccc(C4CCN(CCS(C)(=O)=O)CC4)cc3c2C(C)C)cn2nncc12` [Example 785, 6-(3-isopropyl-5-(1-(2-(methylsulfonyl)ethyl)piperidin-4-yl)-1H-indol-2-yl)-4-methyl-[1,2,3]triazolo[1,5-a]pyridine], the half-inhibitory concentration (IC50) lay within 1 to 50 µM against human TLR7, 0.1 to 1 µM on human TLR8 and 1 to 50 µM on human TLR9.
Turning to `Cc1c(-c2ccnc3[nH]ncc23)[nH]c2ccc(C3CCN(C4CCN(C(C)C)CC4)CC3)cc12` [Example 833, 4-(5-(1′-isopropyl-[1,4′-bipiperidin]-4-yl)-3-methyl-1H-indol-2-yl)-1H-pyrazolo[3,4-b]pyridine], the IC50 against human TLR7, on human TLR8 and at human TLR9 was less than 0.1 µM in each case.
Consider `Cc1c(-c2ccnc3[nH]cnc23)[nH]c2ccc(C3CCNCC3)cc12` [Example 60, 7-(3-methyl-5-(piperidin-4-yl)-1H-indol-2-yl)-3H-imidazo[4,5-b]pyridine], for which the IC50 against human TLR7 is less than 0.1 µM; at human TLR8, 0.1 to 1 µM; against human TLR9, 0.1 to 1 µM.
Consider `Cc1cc(-c2[nH]c3ccc(C4CCN(C5COC5)CC4)cc3c2C(C)C)cn2ccnc12` [Example 719, 6-(3-isopropyl-5-(1-(oxetan-3-yl)piperidin-4-yl)-1H-indol-2-yl)-8-methylimidazo[1,2-a]pyridine], for which the half-inhibitory concentration (IC50) on human TLR7 is less than 0.1 µM; at human TLR8 it was less than 0.1 µM; against human TLR9 it was 0.1 to 1 µM.
On to `CC(C)c1c(-c2ccn3nncc3c2)[nH]c2ccc(C3CCN(C(=O)CN(C)C)CC3)cc12` [Example 465, 1-(4-(2-([1,2,3]triazolo [1,5-a]pyridin-5-yl)-3-isopropyl-1H-indol-5-yl)piperidin-1-yl)-2-(dimethylamino)ethan-1-one], for which the values for the IC50 against human TLR7, at human TLR8 and at human TLR9 were less than 0.1 µM, 0.1 to 1 µM and 1 to 50 µM, respectively.
Consider `Cc1cc(-c2[nH]c3ccc(C4CCN(C5COC5)CC4)cc3c2C(C)C)cn2nncc12` [Example 737, 6-(3-isopropyl-5-(1-(oxetan-3-yl)piperidin-4-yl)-1H-indol-2-yl)-4-methyl-[1,2,3]triazolo[1,5-a]pyridine], for which the IC50 at human TLR7, against human TLR8 and against human TLR9 was 1 to 50 µM throughout.
In the case of `Cc1cc2cc(-c3[nH]c4ccc(C5CCN(C(=O)CN(C)C)CC5)cc4c3C(C)C)cc(CC(C)C)n2n1` [Example 524, 2-(dimethylamino)-1-(4-(2-(7-isobutyl-2-methylpyrazolo[1,5-a]pyridin-5-yl)-3-isopropyl-1H-indol-5-yl)piperidin-1-yl)ethan-1-one], the IC50 at human TLR7 is greater than 3.13 µM; against human TLR8 it was greater than 3.13 µM; on human TLR9 it was 1 to 50 µM.
Take `Cc1cc(-c2[nH]c3ccc(C4CCN(C(=O)CN(C)C)CC4)cc3c2C(C)C)cc2c1oc(=O)n2C` [Example 489, 5-(5-(1-(dimethylglycyl)piperidin-4-yl)-3-isopropyl-1H-indol-2-yl)-3,7-dimethylbenzo[d]oxazol-2(3H)-one]: the IC50 against human TLR7 was less than 0.1 µM; on human TLR8, 0.1 to 1 µM; against human TLR9, 1 to 50 µM.
On to `CC(C)c1c(-c2cc(Cl)c3ncccc3c2)[nH]c2ccc(C3CCN(CC(=O)N(C)C)CC3)cc12` [Example 380, 2-(4-(2-(8-chloroquinolin-6-yl)-3-isopropyl-1H-indol-5-yl)piperidin-1-yl)-N,N-dimethylacetamide], for which the IC50 against human TLR7 was less than 0.1 µM; against human TLR8, less than 0.1 µM; against human TLR9, 1 to 50 µM.
Consider `Cc1nc2cc(-c3[nH]c4ccc(C5CCN(CC(=O)N(C)C)CC5)cc4c3C(C)C)cc(C)c2o1` [Example 338, 2-(4-(2-(2,7-dimethylbenzo [d]oxazol-5-yl)-3-isopropyl-1H-indol-5-yl)piperidin-1-yl)-N,N-dimethylacetamide], for which the values for the IC50 against human TLR7, on human TLR8 and against human TLR9 were less than 0.1 µM, 0.1 to 1 µM and 1 to 50 µM, respectively.
